# Results as given in PubChem BioAssay AID1949 (Southern Research Institute, 2009).
# Records with an inconclusive call do not appear. The source made the active and inactive calls. How the calls were made is not given here.
# System: M. tuberculosis H37Rv growth inhibition
# Experiment: Mycobacterium tuberculosis H37Rv growth inhibition, cell based, confirmatory dose response (AID 1949);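 further: bacteria grown 7 days with compound before Alamar blue readout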
row,SMILES,IC50
1,CCOC(=O)COc1ccc2c(=O)c(-c3ccc(F)cc3)coc2c1,21.3 µg/mL
2,Cc1ccc(NC(=S)c2ccccn2)c(C)c1,4.22 µg/mL
3,O=c1c2ccccc2nc(CSc2ncnc3ccccc23)n1-c1ccc(Cl)c(Cl)c1,> 50 µg/mL (inactive)
4,CCCC(=O)NC(=S)Nc1cccc(C(F)(F)F)c1,2.69 µg/mL
5,Clc1ccc(OCCOCCNCc2ccccc2)c2ccccc12,6.11 µg/mL
6,CCOc1ccc(NC(=O)COc2ccc(SC)cc2)cc1,< 0.1 µg/mL
7,N#CCCN(Cc1ccccc1)C(=S)NC(=O)c1ccccc1,2.51 µg/mL
8,CCOC(=O)c1ccc(NC(=O)CC2C(=O)N(Cc3ccccc3)C(=S)N2Cc2cccnc2)cc1 (stereo not drawn),6.04 µg/mL
9,O=C1c2cccc3cccc(c23)C(=O)N1CC1CCN(CC(O)COc2ccc3ccccc3c2)CC1 (stereo not drawn),0.84 µg/mL
10,CCOC(=O)COc1ccc2c(=O)c(-c3ccccc3Cl)c(C)oc2c1C,0.98 µg/mL
11,CN1CCN(c2ccc(NC(=O)c3ccc(-c4ccc(Br)cc4)o3)cc2)CC1,2.94 µg/mL
12,COc1ccc(C(=O)C(CN2CCCCC2)c2ccccc2)cc1 (stereo not drawn),3.15 µg/mL
13,CC12CC3CC(C)(C1)CC(C(=O)Nc1nc4ccccc4s1)(C3)C2,0.24 µg/mL
14,CCOC(=O)Cn1cc(C#N)c2cccc(CC)c21,0.87 µg/mL
15,CC(C)(C)OC(=O)COc1cc2oc(=O)cc(-c3ccccc3)c2cc1Cl,> 50 µg/mL (inactive)
16,CCOC(=O)C(C)Oc1ccc2c(=O)c(-c3ccc(Cl)cc3)coc2c1 (stereo not drawn),> 50 µg/mL (inactive)
17,CC1=CC(C)(C)N2C(=O)C(=O)c3cc(OC(=O)c4ccccc4)cc1c32,> 50 µg/mL (inactive)
18,COC(=O)C(CC(=O)c1ccc(Br)cc1)n1ccnc1 (stereo not drawn),0.7 µg/mL
19,O=C(CSc1nnc(-c2cccnc2)o1)c1ccc(Oc2ccccc2)cc1,> 50 µg/mL (inactive)
20,CCCCc1cc(=O)oc2cc(OC(C)C(=O)OCC)c(Cl)cc12 (stereo not drawn),< 0.1 µg/mL

row,SMILES,IC50
1,Cc1ccc(NC(=O)COc2cccc(C=O)c2)cc1Cl,5.9 µg/mL
2,COc1ccc(Cc2nnc(SCC(=O)NCCc3ccccc3)o2)cc1,< 0.1 µg/mL
3,O=C(COc1ccc([N+](=O)[O-])cc1)Nc1ccccc1F,18.7 µg/mL
4,Cc1ccc(O)c(C2=NNC(c3ccc(Cl)cc3)C2)c1 (stereo not drawn),4.76 µg/mL
5,COC(=O)COc1cc2oc(=O)cc(-c3ccccc3)c2cc1Cl,29 µg/mL
6,O=[N+]([O-])/C=C/c1c[nH]c2ccc(Br)cc12,8.61 µg/mL
7,CCCc1cc2c(-c3ccccc3)cc(=O)oc2cc1OCC(=O)OC,5.24 µg/mL
8,COc1cccc(N2C(=O)c3cccc4cc([N+](=O)[O-])cc(c34)C2=O)c1,11 µg/mL
9,O=Cc1cc(COc2ccc(F)cc2Cl)cs1,3.16 µg/mL
10,CCC(=O)NC(=S)Nc1ccc(N2CCCCC2)cc1,3.52 µg/mL
11,COc1ccccc1NC(=O)CSc1nc2cc3ccccc3cc2[nH]1,3.08 µg/mL
12,Cc1ccc2nc(NCc3ccccc3)[nH]c2c1,1.49 µg/mL
13,COc1cccc2cc(C(=O)Oc3ccc(Cl)cc3)c(=O)oc12,> 50 µg/mL (inactive)
14,CCOC(=O)c1ccc(NC(=O)CSc2nnc(-c3ccco3)c(-c3ccco3)n2)cc1,19.7 µg/mL
15,Clc1ccc(OCCCn2ccnc2)cc1Cl,3.98 µg/mL
16,O=C(Nc1nc2c(Cl)cccc2s1)c1ccc([N+](=O)[O-])o1,1.58 µg/mL
17,COc1c(C)cccc1C(=O)Nc1ccc(N2CCCC2)cc1,4.85 µg/mL
18,COc1cc(Br)cc2cc(C(=O)Nc3ccccc3C(F)(F)F)c(=O)oc12,> 50 µg/mL (inactive)
19,O=C1C(Cl)=C(c2ccc(Cl)cc2)C(=O)N1c1ccc(Cl)cc1,> 50 µg/mL (inactive)
20,CCOC(=O)COc1ccc2ccccc2c1/C=C(\C)[N+](=O)[O-],0.5 µg/mL

row,SMILES,IC50
1,COc1ccc(C(=O)CCN2CCN(c3ccccc3F)CC2)cc1,5.64 µg/mL
2,Brc1ccc(Nc2nc(-c3ccccn3)cs2)cc1,0.13 µg/mL
3,CC(C)(C)NC(=O)c1cc2cc(Cl)cc(Cl)c2oc1=O,2.54 µg/mL
4,O=C(Oc1c(Cl)cc(Cl)c2cccnc12)c1ccc([N+](=O)[O-])cc1,0.88 µg/mL
5,N#Cc1ccc(-c2nc(-c3ccccc3)c(-c3cccs3)[nH]2)cc1,5.89 µg/mL
6,CCOc1cc(CNCc2ccccc2OCc2ccccc2)cc(Cl)c1OCC,1.94 µg/mL
7,OC(COc1ccccc1Br)CN1CCN(C(c2ccccc2)c2ccccc2)CC1 (stereo not drawn),5.33 µg/mL
8,O=C(NC1CCCCC1)c1ccc(COc2cccc3ccccc23)o1,4.65 µg/mL
9,CCOC(=O)N1CCN(CC(O)COc2ccc(C3CCCCC3)cc2)CC1 (stereo not drawn),3.69 µg/mL
10,COc1cccc(CSc2nc3c(c(-c4ccccc4)c2C#N)CN(C)CC3)c1,22.8 µg/mL
11,Cc1ccc(Cl)cc1N1CCN(CC(O)COc2ccc(Cl)cc2Cl)CC1 (stereo not drawn),6.67 µg/mL
12,COc1cc(SC)ccc1C(=O)NCCOc1ccc(F)cc1,12.1 µg/mL
13,O=C(Oc1cccc2cccnc12)c1ccccc1Br,1.36 µg/mL
14,O=C(CSc1ccc(Br)cc1)Nc1ccccc1,7.69 µg/mL
15,COc1cc(CNc2nccs2)cc(Br)c1OCc1ccc(F)cc1,11.5 µg/mL
16,CCOC(=O)C(Oc1ccc2oc(C)c(C(=O)OC)c2c1)c1ccccc1 (stereo not drawn),2.95 µg/mL
17,O=C1c2cccc3cccc(c23)C(=O)N1CCN1CCN(CCc2ccccc2)CC1,23.8 µg/mL
18,O=C(NCC1COc2ccccc2O1)c1ccc(NC(=O)C2COc3ccccc3O2)cc1 (stereo not drawn),1.94 µg/mL
